# Assay results: patent US6083917A, “Methods and compositions for the identification, characterization and inhibition of farnesyltransferase” (Board of Regents, The University of Texas System, priority 1992, dated 2000)
# Residues, ends and D or L forms follow the SMILES beside them. No end group written: not given here. *: point of attachment. Octanoyl = CCCCCCCC(=O)*
# Target: T1, rat brain farnesyltransferase (Rattus norvegicus, UniProt Q02293+Q04631)
# Assay: Farnesyltransferase assay: transfer of [3H]farnesyl from [3H]FPP to p21H-ras (TCA filter assay), competition by peptides
# Type: biochemical
# Parameters: Brains from 50 male Sprague-Dawley rats (100-150 g) were homogenized; from tissue; host or cells: rat brain (male Sprague-Dawley rats)
# Conditions: Concentration giving 50% inhibition of farnesylation of p21H-ras, FIG. 23A; Mono Q fraction, 0.5 μM [3H]farnesyl pyrophosphate, 30 min at 37° C.
# T1 sequence (Q02293 whole entry, one chain of several): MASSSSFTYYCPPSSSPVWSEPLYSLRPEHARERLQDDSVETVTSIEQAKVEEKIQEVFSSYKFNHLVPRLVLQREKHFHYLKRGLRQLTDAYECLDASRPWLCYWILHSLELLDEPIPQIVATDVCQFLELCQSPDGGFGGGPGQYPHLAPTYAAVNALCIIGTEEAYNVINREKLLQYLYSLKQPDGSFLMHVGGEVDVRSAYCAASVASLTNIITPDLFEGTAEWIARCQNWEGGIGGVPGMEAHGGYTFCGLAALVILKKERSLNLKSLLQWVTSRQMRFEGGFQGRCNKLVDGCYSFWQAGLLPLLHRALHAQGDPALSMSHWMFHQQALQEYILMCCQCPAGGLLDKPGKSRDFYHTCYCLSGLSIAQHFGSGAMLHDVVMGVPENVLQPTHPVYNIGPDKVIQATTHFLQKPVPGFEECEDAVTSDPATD
row,IC50,Molecule
1,270 nM,CSCC[C@H](NC(=O)[C@H](Cc1ccccc1)NC(=O)[C@@H](NC(=O)[C@H](CS)NC(C)=O)C(C)C)C(=O)O [N-AcCVFM] (Ac-CVFM-OH)

# Target: T1, rat brain farnesyltransferase
# Assay: Binding of prenyl pyrophosphates to protein farnesyltransferase (gel filtration)
# Parameters: Protein farnesyltransferase was purified to apparent homogeneity from rat brain homogenates; from tissue; host or cells: rat brain
# Conditions: purified enzyme
# Excerpt: Transfer of the enzyme-bound farnesyl group to the bound p21^H-ras required Mg^2+. […] It also was not transferred to a modified p21^H-ras containing COOH-terminal leucine, a protein that was shown previously to be a good substrate for a rat brain geranylgeranyltransferase (35). The inventors conclude that the protein farnesyltransferase is a metalloenzyme that most likely contains Zn^2+ at the peptide-binding site. It thus resembles certain metallopeptidases, including carboxy-peptidase A and the angiotensin-converting enzyme. Strategies previously developed to screen for inhibitors of those enzymes will likely aid in the search for inhibitors of the protein farnesyltransferase.
row,Molecule,Affinity for the prenyl pyrophosphate binding site
1,CC(C)=CCC/C(C)=C/CC/C(C)=C/CC/C(C)=C/COP(=O)(O)OP(=O)(O)O [Geranylgeranyl pyrophosphate],affinity equal to that of farnesyl pyrophosphate

# Target: T1, rat brain farnesyltransferase
# Assay: Farnesyltransferase assay: transfer of [3H]farnesyl from [3H]FPP to p21H-ras (TCA filter assay), competition by peptides
# Type: biochemical
# Parameters: Brains from 50 male Sprague-Dawley rats (100-150 g) were homogenized; from tissue; host or cells: rat brain (male Sprague-Dawley rats)
# Conditions: Concentration giving 50% inhibition of farnesyltransferase (text, FIG. 14 / Table II), Example II; partially purified rat brain enzyme, p21H-ras acceptor
# Protocol: Farnesyltransferase activity was determined by measuring the amount of ^3 H-farnesol transferred from all-trans ^3 H]farnesyl pyrophosphate ([^3 H]FPP) to p21^H-ras protein. The standard reaction mixture contained the following concentrations of components in a final volume of 25 μl: 50 mM Tris-chloride (pH 7.5), 50 μM ZnCl2, 20 mM KCl, 1 mM DTT, and 40 μM p21^H-ras. The mixture also contained 10 pmoles of [^3 H]FPP (~30,000 dpm/pmol) and 1.8-3.5 μg of partially purified farnesyltransferase (see below). After incubation for 1 hour at 37° C. in 12×75-mm borosilicate tubes, the reaction was stopped by addition of 0.5 ml of 4% SDS and then 0.5 ml of 30% trichloroacetic acid (TCA).
# The tubes were vortexed and left on ice for 45-60 min, after which 2 ml of a 6% TCA/2% SDS solution were added. The mixture was filtered on a 2.5-cm glass fiber filter with a Hoefer filtration unit (FH 225). The tubes were rinsed twice with 2 ml of the same solution, and each filter was washed five times with 2 ml of 6% TCA, dried, and counted in a scintillation counter. One unit of activity is defined as the amount of enzyme that transfers 1 pmol of [^3 H]farnesol from [^3 H]FPP into acid-precipitable p21^H-ras per hour under the standard conditions.
# The standard assay involved measuring the amount of [^3 H]farnesyl transferred from all-trans [^3 H]FPP to recombinant human p21^H-ras as described in Example I. Each reaction mixture contained the following concentrations of components in a final volume of 25 μl: 50 mM Tris-chloride (pH 7.5), 50 μM ZnCl2, 30 mM KCl, 1 mM DTT, 30 or 40 μM p21^H-ras, 15 pmol [^3 H]FPP (12-23,000 dpm/pmol), 4 to 7.5 μg of partially purified farnesyltransferase (Mono Q fraction, see Example I), and the indicated concentration of competitor peptide added in 3 μl of 10 mM DTT. […] This blank value was subtracted before calculating "% of control" values.
# The amount of [^3 H]farnesyl transferred from all-trans-[^3 H]farnesyl pyrophosphate to recombinant p21^H-ras was measured in a filter assay as previously described (62).
row,IC50,Molecule
1,150 nM,CC[C@H](C)[C@H](NC(=O)[C@H](C)NC(=O)[C@@H](N)CS)C(=O)N[C@@H](CCSC)C(=O)O [CAIM] (H-CAIM-OH)
2,150 nM,CC[C@H](C)[C@H](NC(=O)[C@@H](NC(=O)[C@@H](N)CS)C(C)C)C(=O)N[C@@H](CCSC)C(=O)O [CVIM] (H-CVIM-OH)

# Same assay, conditions: Table II; partially purified rat farnesyltransferase, p21H-ras acceptor; seven concentrations 0.03 to 100 μM; read-out: Concentration for 50% Inhibition
row,IC50,Molecule
1,200 nM,CC[C@H](C)[C@H](NC(=O)[C@H](CO)NC(=O)[C@@H](N)CS)C(=O)N[C@@H](CCSC)C(=O)O [CSIM] (H-CSIM-OH)
2,150 nM,CC[C@H](C)[C@H](NC(=O)[C@H](C)NC(=O)[C@@H](N)CS)C(=O)N[C@@H](CCSC)C(=O)O [CAIM] (H-CAIM-OH)
3,150 nM,CC[C@H](C)[C@H](NC(=O)[C@@H](NC(=O)[C@@H](N)CS)C(C)C)C(=O)N[C@@H](CCSC)C(=O)O [CVIM] (H-CVIM-OH)
4,150 nM,CC[C@H](C)[C@H](NC(=O)[C@@H](NC(=O)[C@@H](N)CS)[C@@H](C)CC)C(=O)N[C@@H](CCSC)C(=O)O [CIIM] (H-CIIM-OH)
5,150 nM,CSCC[C@H](NC(=O)[C@@H](NC(=O)[C@@H](NC(=O)[C@@H](N)CS)C(C)C)C(C)C)C(=O)O [CVVM] (H-CVVM-OH)

# Same assay, conditions: Table III; six concentrations 0.03 to 10 μM; read-out: Concentration for 50% Inhibition of Farnesylation of p21H-ras
row,Molecule,IC50
1,CCCCCCCC(=O)N[C@@H](CS)C(=O)N[C@H](C(=O)N[C@@H](Cc1ccccc1)C(=O)N[C@@H](CCSC)C(=O)O)C(C)C [N-Octanoyl-CVFM] (Octanoyl-CVFM-OH),350 nM
2,CSCC[C@H](NC(=O)[C@H](Cc1c[nH]c2ccccc12)NC(=O)[C@@H](NC(=O)[C@H](CS)NC(C)=O)C(C)C)C(=O)O [N-AcCVWM] (Ac-CVWM-OH),3700 nM
3,Ac-HCVFM [N-AcHCVFM],240 nM
4,Ac-SCVFM [N-AcSCVFM],230 nM
5,CSCC[C@H](NC(=O)[C@H](Cc1ccccc1)NC(=O)[C@@H](NC(=O)[C@H](CS)NC(=O)[C@@H](N)CS)C(C)C)C(=O)O [CCVFM] (H-CCVFM-OH),440 nM
6,Ac-KCVFM [N-AcKCVFM],300 nM
7,Ac-ECVFM [N-AcECVFM],2400 nM
8,Ac-GCVFM [N-AcGCVFM],430 nM
9,CSCC[C@H](NC(=O)[C@H](Cc1ccccc1)NC(=O)[C@@H](NC(=O)[C@H](CS)NC(=O)[C@H](CS)NC(C)=O)C(C)C)C(=O)O [N-AcCCVFM] (Ac-CCVFM-OH),110 nM
10,Ac-DCVFM [N-AcDCVFM],1900 nM
11,CC[C@H](C)[C@H](NC(=O)[C@@H](NC(=O)[C@H](CS)NC(C)=O)C(C)C)C(=O)N[C@@H](CCSC)C(=O)O [N-AcCVIM] (Ac-CVIM-OH),150 nM

# More lines, now with the values ahead:
row,IC50,Molecule
1,1400 nM,Ac-MCVFM [N-AcMCVFM]
2,150 nM,CC[C@H](C)[C@H](NC(=O)[C@@H](NC(=O)[C@@H](N)CS)C(C)C)C(=O)N[C@@H](CCSC)C(=O)O [CVIM] (H-CVIM-OH)
3,250 nM,CSCC[C@H](NC(=O)[C@H](Cc1ccccc1)NC(=O)[C@@H](NC(=O)[C@H](CS)NC(C)=O)C(C)C)C(=O)O [N-AcCVFM] (Ac-CVFM-OH)
4,320 nM,CSCC[C@H](NC(=O)[C@H](Cc1c[nH]c2ccccc12)NC(=O)[C@@H](NC(=O)[C@@H](N)CS)C(C)C)C(=O)O [CVWM] (H-CVWM-OH)
5,200 nM,Ac-PCVFM [N-AcPCVFM]
6,1100 nM,KCVFM [KCVFM]

# Same assay, conditions: substrate saturation, FIG. 2A and 2B
row,Molecule,Concentration that gave half-maximal reaction velocity
1,"CC(C)=CCC/C(C)=C/CC/C(C)=C/COP(=O)(O)OP(=O)(O)O [[^3 H]farnesyl pyrophosphate, farnesyl pyrophosphate, reference compound]",approximately 0.5 μM
